According to ChEMBL document CHEMBL1649268, “Comparative in vitro activity profile of oritavancin against recent gram-positive clinical isolates” (2009):
Values after ≈ are worked out from the molar mass of the structure shown.

Experiments:
[1] = tested on: Streptococcus pneumoniae; assay: Antimicrobial activity against penicillin-intermediate Streptococcus pneumoniae clinical isolates assessed as percent susceptible isolates by broth microdilution method; assay type: functional
[2] = tested on: Streptococcus; assay: Antimicrobial activity against Streptococcus Group F clinical isolates by broth microdilution method; assay type: functional
[3] = tested on: Staphylococcus haemolyticus; assay: Antimicrobial activity against oxacillin-resistant Staphylococcus haemolyticus clinical isolates by broth microdilution method; assay type: functional
[4] = tested on: Streptococcus; assay: Antimicrobial activity against erythromycin-susceptible Streptococcus Group F clinical isolates by broth microdilution method; assay type: functional
[5] = tested on: Streptococcus pyogenes; assay: Antimicrobial activity against erythromycin-susceptible Streptococcus pyogenes clinical isolates assessed as percent susceptible isolates by broth microdilution method; assay type: functional
[6] = tested on: Streptococcus agalactiae; assay: Antimicrobial activity against Streptococcus agalactiae clinical isolates by broth microdilution method; assay type: functional
[7] = tested on: Streptococcus pneumoniae; assay: Antimicrobial activity against Streptococcus pneumoniae clinical isolates by broth microdilution method; assay type: functional
[8] = tested on: Streptococcus pneumoniae; assay: Antimicrobial activity against penicillin-resistant Streptococcus pneumoniae clinical isolates assessed as percent susceptible isolates by broth microdilution method; assay type: functional
[9] = Antimicrobial activity against erythromycin-susceptible Streptococcus Group C clinical isolates by broth microdilution method; assay type: functional; conditions: Streptococcus sp. 'group C'
[10] = tested on: Streptococcus pneumoniae; assay: Antimicrobial activity against penicillin-susceptible Streptococcus pneumoniae clinical isolates assessed as percent susceptible isolates by broth microdilution method; assay type: functional
[11] = tested on: Streptococcus pyogenes; assay: Antimicrobial activity against erythromycin-susceptible Streptococcus pyogenes clinical isolates by broth microdilution method; assay type: functional
[12] = tested on: Streptococcus pneumoniae; assay: Antimicrobial activity against penicillin-resistant Streptococcus pneumoniae clinical isolates by broth microdilution method; assay type: functional
[13] = tested on: Streptococcus agalactiae; assay: Antimicrobial activity against Streptococcus agalactiae clinical isolates assessed as percent susceptible isolates by broth microdilution method; assay type: functional
[14] = Antimicrobial activity against erythromycin-susceptible Streptococcus Group G clinical isolates by broth microdilution method; assay type: functional; conditions: Streptococcus sp. 'group G'
[15] = Antimicrobial activity against erythromycin-susceptible Streptococcus Group G clinical isolates assessed as percent susceptible isolates by broth microdilution method; assay type: functional, Streptococcus sp. 'group G'
[16] = tested on: Streptococcus; assay: Antimicrobial activity against Streptococcus Group F clinical isolates assessed as percent susceptible isolates by broth microdilution method; assay type: functional
[17] = tested on: Streptococcus pneumoniae; assay: Antimicrobial activity against Streptococcus pneumoniae clinical isolates assessed as percent susceptible isolates by broth microdilution method; assay type: functional
[18] = tested on: Staphylococcus haemolyticus; assay: Antimicrobial activity against oxacillin-susceptible Staphylococcus haemolyticus clinical isolates by broth microdilution method; assay type: functional
[19] = Antimicrobial activity against erythromycin-nonsusceptible Streptococcus Group C clinical isolates by broth microdilution method; assay type: functional; conditions: Streptococcus sp. 'group C'
[20] = Antimicrobial activity against Streptococcus Group C clinical isolates by broth microdilution method; assay type: functional; conditions: Streptococcus sp. 'group C'
[21] = tested on: Streptococcus pneumoniae; assay: Antimicrobial activity against penicillin-intermediate Streptococcus pneumoniae clinical isolates assessed as resistant isolates by broth microdilution method; assay type: functional
[22] = Antimicrobial activity against Streptococcus Group G clinical isolates assessed as resistant isolates by broth microdilution method; assay type: functional, Streptococcus sp. 'group G'
[23] = Antimicrobial activity against erythromycin-susceptible Streptococcus Group C clinical isolates assessed as percent susceptible isolates by broth microdilution method; assay type: functional, Streptococcus sp. 'group C'
[24] = tested on: Streptococcus pyogenes; assay: Antimicrobial activity against Streptococcus pyogenes clinical isolates assessed as percent susceptible isolates by broth microdilution method; assay type: functional
[25] = Antimicrobial activity against Streptococcus Group G clinical isolates by broth microdilution method; assay type: functional; conditions: Streptococcus sp. 'group G'
[26] = tested on: Streptococcus agalactiae; assay: Antimicrobial activity against erythromycin-nonsusceptible Streptococcus agalactiae clinical isolates by broth microdilution method; assay type: functional
[27] = tested on: Streptococcus pyogenes; assay: Antimicrobial activity against erythromycin-nonsusceptible Streptococcus pyogenes clinical isolates assessed as percent susceptible isolates by broth microdilution method; assay type: functional
[28] = tested on: Streptococcus agalactiae; assay: Antimicrobial activity against erythromycin-nonsusceptible Streptococcus agalactiae clinical isolates assessed as resistant isolates by broth microdilution method; assay type: functional
[29] = tested on: Streptococcus agalactiae; assay: Antimicrobial activity against Streptococcus agalactiae clinical isolates assessed as resistant isolates by broth microdilution method; assay type: functional
[30] = tested on: Staphylococcus epidermidis; assay: Antimicrobial activity against Staphylococcus epidermidis clinical isolates assessed as percent susceptible isolates by broth microdilution method; assay type: functional
[31] = tested on: Streptococcus pyogenes; assay: Antimicrobial activity against erythromycin-nonsusceptible Streptococcus pyogenes clinical isolates by broth microdilution method; assay type: functional
[32] = tested on: Streptococcus pneumoniae; assay: Antimicrobial activity against penicillin-intermediate Streptococcus pneumoniae clinical isolates by broth microdilution method; assay type: functional
[33] = Antimicrobial activity against erythromycin-nonsusceptible Streptococcus Group G clinical isolates by broth microdilution method; assay type: functional; conditions: Streptococcus sp. 'group G'
[34] = tested on: Streptococcus pneumoniae; assay: Antimicrobial activity against penicillin-susceptible Streptococcus pneumoniae clinical isolates by broth microdilution method; assay type: functional
[35] = tested on: Streptococcus agalactiae; assay: Antimicrobial activity against erythromycin-susceptible Streptococcus agalactiae clinical isolates assessed as percent susceptible isolates by broth microdilution method; assay type: functional
[36] = tested on: Streptococcus; assay: Antimicrobial activity against erythromycin-nonsusceptible Streptococcus Group F clinical isolates by broth microdilution method; assay type: functional
[37] = tested on: Streptococcus; assay: Antimicrobial activity against erythromycin-susceptible Streptococcus Group F clinical isolates assessed as percent susceptible isolates by broth microdilution method; assay type: functional
[38] = tested on: Streptococcus agalactiae; assay: Antimicrobial activity against erythromycin-nonsusceptible Streptococcus agalactiae clinical isolates assessed as percent susceptible isolates by broth microdilution method; assay type: functional
[39] = tested on: Staphylococcus epidermidis; assay: Antimicrobial activity against oxacillin-susceptible Staphylococcus epidermidis clinical isolates assessed as resistant isolates by broth microdilution method; assay type: functional
[40] = tested on: Streptococcus pyogenes; assay: Antimicrobial activity against Streptococcus pyogenes clinical isolates by broth microdilution method; assay type: functional
[41] = tested on: Staphylococcus haemolyticus; assay: Antimicrobial activity against oxacillin-resistant Staphylococcus haemolyticus clinical isolates assessed as resistant isolates by broth microdilution method; assay type: functional
[42] = tested on: Streptococcus agalactiae; assay: Antimicrobial activity against erythromycin-susceptible Streptococcus agalactiae clinical isolates assessed as resistant isolates by broth microdilution method; assay type: functional
[43] = tested on: Staphylococcus haemolyticus; assay: Antimicrobial activity against Staphylococcus haemolyticus clinical isolates assessed as resistant isolates by broth microdilution method; assay type: functional
[44] = Antimicrobial activity against Streptococcus Group G clinical isolates assessed as percent susceptible isolates by broth microdilution method; assay type: functional, Streptococcus sp. 'group G'
[45] = Antimicrobial activity against erythromycin-nonsusceptible Streptococcus Group G clinical isolates assessed as percent susceptible isolates by broth microdilution method; assay type: functional, Streptococcus sp. 'group G'
[46] = tested on: Streptococcus pyogenes; assay: Antimicrobial activity against erythromycin-susceptible Streptococcus pyogenes clinical isolates assessed as resistant isolates by broth microdilution method; assay type: functional
[47] = tested on: Streptococcus agalactiae; assay: Antimicrobial activity against erythromycin-susceptible Streptococcus agalactiae clinical isolates by broth microdilution method; assay type: functional
[48] = tested on: Staphylococcus haemolyticus; assay: Antimicrobial activity against Staphylococcus haemolyticus clinical isolates by broth microdilution method; assay type: functional
[49] = tested on: Streptococcus pyogenes; assay: Antimicrobial activity against erythromycin-nonsusceptible Streptococcus pyogenes clinical isolates assessed as resistant isolates by broth microdilution method; assay type: functional

CCC[C@@H]1C[C@@H](C(=O)N[C@@H]([C@H]2O[C@H](SC)[C@H](O)[C@@H](O)[C@H]2O)[C@H](C)Cl)N(C)C1 [CLINDAMYCIN] showed an Activity [1] of 84.7%, an MIC90 [2] of 0.06 µg/mL (≈ 0.141 µM) and an MIC90 [3] of over 4 µg/mL. For the same compound, the MIC90 [4] was 0.06 µg/mL (≈ 0.141 µM), the Activity [5] was 100% and the MIC90 [6] was over 1 µg/mL. The MIC90 [7] was over 1 µg/mL, the Activity [8] was 45.3% and the MIC90 [9] was 0.06 µg/mL (≈ 0.141 µM). It also gave an Activity [10] of 97.2%, an MIC90 [11] of 0.06 µg/mL (≈ 0.141 µM) and an MIC [12] of over 0.03 µg/mL. The Activity [13] was 81.9%, the MIC90 [14] was 0.06 µg/mL (≈ 0.141 µM) and the Activity [15] was 100%. For the same compound, the Activity [16] was 96.4%, the Activity [17] was 86.9% and the MIC90 [18] was 0.12 µg/mL (≈ 0.282 µM). The MIC90 [19] was over 1 µg/mL, the MIC90 [20] was 0.06 µg/mL (≈ 0.141 µM) and the “Percent of isolates resistant” value [21] was 15.3%. The Activity [22] was 3.6%, the Activity [23] was 100% and the Activity [24] was 96%. The MIC90 [25] was 0.06 µg/mL (≈ 0.141 µM), the MIC90 [26] was over 1 µg/mL and the Activity [27] was 71%. For the same compound, the Activity [28] was 57.4%, the Activity [29] was 17.6% and the Activity [30] was 65%. It also gave an MIC90 [31] of over 1 µg/mL, an MIC90 [32] of over 1 µg/mL and an MIC90 [33] of over 1 µg/mL. The MIC90 [34] was 0.06 µg/mL (≈ 0.141 µM), the Activity [35] was 99% and the MIC90 [36] was over 1 µg/mL. For the same compound, the Activity [37] was 100%, the Activity [38] was 41% and the “Percent of isolates resistant” value [39] was 11%. It also gave an MIC90 [40] of 0.06 µg/mL (≈ 0.141 µM), an Activity [41] of 37.1% and an Activity [42] of 1%. It also gave a Resistant isolates [43] of 27.9%, an Activity [44] of 96.4% and an Activity [45] of 82.4%. The Activity [46] was 0%, the MIC90 [47] was 0.06 µg/mL (≈ 0.141 µM) and the MIC90 [48] was over 2 µg/mL. The Activity [49] was 28.2%.
